Results from patent US20060247416A1, “HIV gp41 HR2-derived synthetic peptides, and their use in therapy to inhibit transmission of human immunodeficiency virus” (priority 2004, published 2006).

Key:
[1] = 10 mg/ml in PBS, about pH 7.3 to about pH 7.5, 37° C., after several hours
Protocol: Each was individually tested for stability in aqueous solution by adding the peptide at a concentration of 10 mg/ml to phosphate-buffered saline (PBS), and by measuring (e.g., by HPLC) at different time points over a period of 1 week (168 hours) the amount of peptide remaining in solution at a range of about pH 7.3 to about pH 7.5 at 37° C.

HIV-1 = conditions: regimen of antiviral agents containing T20 versus same regimen without T20; cited from earlier work
HIV-1LAI = conditions: Lawless et al., 1996; cited from earlier work

enfuvirtide
stability in aqueous solution [1]: minimal to no peptide detected in solution
HIV-1 viral load (HIV-1): significantly reduces
circulating CD4+ cell population (HIV-1): significantly increases
EC50 against HIV-1LAI (HIV-1LAI): 0.5 ng/mL
